Test [1] has as its system RSV-A2-GFP. As to the kind of experiment: RSV-A2-GFP viral replication assay. Type of test: cell-based, Human Respiratory Syncytial Virus. The text has this: GFP sequence was derived from pJTI™ R4 Dest CMV N-EmGFP pA Vector (Invitrogen) and was cloned into the intergenic sequence between wild-type RSV-A2 P and M genes using standard recombineering techniques. Recombinant RSV-A2-GFP was propagated in Hep2 cells (human cells contains HeLa marker chromosomes and were derived via HeLa contamination, ATCC CCL-23) with infection Multiplicity of Infection (MOI) of 0.1. Virus was harvested 3 days after infection by collecting all culture material and freeze-thaw the viral culture in liquid nitrogen for at least 5 times. To generating virus working stocks, thaw frozen samples in 37° C. water bath then centrifuge at 218 g for 15 min at 4° C. Add 1/10 of 10×SPG (Biological Industries 06-3061-01-5A), mix, aliquot supernatant, and quick-freeze in liquid nitrogen then transfer to −80° C. freezer for storage. Virus titer was determined by automated plaque assay in HEp-2 cells following methods described previously (Wen Z. et al.; J Virol Methods. 2019 January; 263:88-95).
Calu-1 cells (human lung epidermoid carcinoma, ATCC HTB-54) assay ready freezedown (ARF generation described separately) were used in assays. Compound plates were prepared by dispensing compounds dissolved in DMSO into wells of 384 well coming 3985 polystyrene flat clear bottom optical imaging microplates (202.5 nL/well) using an ECHO acoustic dispenser. Each compound was tested in a 10-point serial 3-fold dilution (typical final concentrations: 403 nM-0.02 nM and 40.3 nM-0.002 nM). […] To set up the assay, thaw ARF vial(s) in 37° C. water bath until small ice crystal remain and resuspend into assay media (DMEM containing 2% FBS, 100 U/ml Penicillin-Streptomycin). Count cells using default parameters on ViCell and dilute to 20,000 cells per ml in assay media. Add RSV GFP to cells at 24,000 pfu/ml (MOI=1.2). Mix by gentle inversion. 10 μl/well of 100% DMSO was dispensed to CellTiter-Glo (CTG) assay Max_E controls wells. Dispense cells at 50 μl/well using Bravo and 50 μl filtered tips into compound plates. Cover plates with MicroClime lids loaded with 7.5 ml of assay media to minimize evaporation. Incubate at 37 degrees C. and 5% CO2 for 96 hrs. Following incubation, distinct, GFP-expressing cells are counted using an Acumen imaging system with appropriate settings. A same-well CTG assay is performed by adding 10 μl/well reconstituted CellTiter-Glo reagent (Promega G7573) and reading plates on PerkinElmer Envision according to manufacturer's instructions. Raw data were loaded and analyzed in ActivityBase. Antiviral IC50 and cytotoxicity CC50 values were determined using a 4 parameter logistic fit based on the Levenberg-Marquardt algorithm. Model: 205-4 Parameter Logistic.
Calu-1 cells were purchased from ATCC (Cat #HTB-54) and are expanded in growth media (DMEM containing 10% FBS, 100 U/ml Penicillin-Streptomycin). To make ARF, remove and discard cell culture media, briefly rinse the cell layer with PBS to remove all traces of serum. Add 2.5 ml of TrypLE Express solution and incubate until cells dislodge, then add growth media and resuspend the cells by gentle pipetting. Count cells for concentration and determine viability using a ViCell. Centrifuge at RT, 300 g for 5 min to pellet cells. Gently aspirate supernatant, flick pellet to loosen cells. Resuspend cells in an appropriate volume of freezing medium (DMEM containing 10% DMSO, 10% FBS, 100 U/ml Penicillin-Streptomycin) to achieve 5×10^6/ml. Transfer 1 ml of cell suspension to freezing vials. Put vials to CoolCell cryopreservation container and place CoolCell container upright in a −80° C. freezer overnight before transferring vials to liquid nitrogen vapor for storage.

Test [2] relates to hMPV-GFP. As to the kind of experiment: hMPV-GFP viral replication assay. It is filed as cell-based, human metapneumovirus. The note with it: read-out: hMPV EC50. As to the method: GFP expressing rgHMPV #3 p3 was generated in Dr. Buchholz's lab (Biacchesi S. et al., J Virol. 2007 June; 81(11): 6057-6067.) and propagated in VERO cells (kidney tissue derived from a normal, adult African green monkey. ATCC Cat #CCL-81) with infection Multiplicity of Infection (MOI) of 0.1. Virus was harvested 4 days after infection by collecting all culture material and freeze-thaw the viral culture in liquid nitrogen twice. To generating virus working stocks, thaw frozen samples in 37° C. water bath then centrifuge at 218 g for 15 min at 4° C. Add 1/10 of 10×SPG (Biological Industries 06-3061-01-5A), mix, aliquot supernatant, and quick-freeze in liquid nitrogen then transfer to −80° C. freezer for storage. Virus titer was determined by performing titration test in 96-well plates and calculate approximate virus titer using GFP event/well data.
Compound plates were prepared by dispensing compounds dissolved in DMSO into wells of 384 well coming 3985 polystyrene flat clear bottom optical imaging microplates (202.5 nL/well) using an ECHO acoustic dispenser. Each compound was tested in a 10-point serial 3-fold dilution (typical final concentrations: 40,300 nM-2 nM). […] Continuous culture of VERO cells were maintained in complete culture media (OptiMEM supplemented with 2 mM GlutaMAX™ and 100 U/ml Penicillin-Streptomycin). To set up the assay, trypsinize VERO cells with 0.25% Trypsin-EDTA until cells dislodge, then re-suspend cells with 1 mL FBS. Spin down cells at 300 g for 5 min and wash cells twice in culture media, then count cells using default parameters on ViCell. Cells were then diluted to 100,000 cells/ml (5,000 cells/50 μl) in complete culture media+TrypLE Select (80 μl/ml). Add hMPV-GFP virus to cells at 125,000 pfu/ml (MOI=1.25). Mix by gentle inversion. 10 μl/well of 100% DMSO was dispensed to CellTiter-Glo (CTG) assay Max_E controls wells. Dispense cells at 50 μl/well using Bravo and 50 μl filtered tips into compound plates. Cover plates with MicroClime lids loaded with 7.5 ml of assay media to minimize evaporation. Lightly shake plate for 10 minutes at room temperature then incubate at 37 degrees C. and 5% CO2 for 48 hrs. Following incubation, distinct, GFP-expressing cells are counted using an Acumen imaging system with appropriate settings. A same-well CTG assay is performed by adding 10 μl/well reconstituted CellTiter-Glo reagent (Promega G7573) and reading plates on PerkinElmer Envision according to manufacturer's instructions. Raw data were loaded and analyzed in ActivityBase. Antiviral IC50 and cytotoxicity CC50 values were determined using a 4 parameter logistic fit based on the Levenberg-Marquardt algorithm. Model: 205-4 Parameter Logistic.

The mark [3] stands for this setting: human respiratory syncytial virus, Calu-1, 96 h, read-out: RSV EC50, Calu-1 cells, RSV-A2-GFP MOI=1.2, 96 hrs, GFP-expressing cells counted.
Setting [4] is: human metapneumovirus, Vero, 48 h.
The mark [5] stands for this setting: read-out: RSV EC50, Calu-1 cells, RSV-A2-GFP MOI=1.2, 96 hrs, GFP-expressing cells counted.
The mark [6] stands for this setting: VERO cells, hMPV-GFP MOI=1.25, 48 hrs, GFP-expressing cells counted.

Molecules are shown by their SMILES. Like-named read-outs stand apart in the source and are kept apart here.

As a reminder, the EC50 is the concentration needed to bring the measured effect to its halfway point. Turning to `Cn1nc(-c2cscn2)cc1C(=O)NCC(C)(O)c1cc(C(C)(C)N)cc(-c2ccc(F)c(F)c2F)n1` (single isomer, unassigned) [Example 20-B], the EC50 in test [1] (setting [3]) was less than 10 nM; in test [2] (setting [4]), greater than 100 nM.

`CC(C)(N)c1cc(-c2ccc(F)cc2)nc(C(C)(O)CNC(=O)c2cc(-c3ncccn3)ns2)c1` (single isomer, unassigned) [Example 10-B]: the values for the concentration for a half-maximal effect (EC50) in test [1] (setting [3]) and in test [2] (setting [4]) were less than 10 nM and greater than 100 nM, respectively.

Regarding `Cc1nc(-c2ncccn2)sc1C(=O)NCC(O)(c1cc(C(C)(C)N)cc(-c2ccc(F)cc2)n1)C(F)(F)F` (single isomer, unassigned) [Example 25-B], the EC50 in test [1] (setting [5]) and in test [2] (setting [6]) was greater than 100 nM each time.

As for `Cn1nc(-c2cscn2)cc1C(=O)NCC(C)(O)c1cc(C(C)(C)N)cc(-c2ccc(F)c(Cl)c2)n1` (single isomer, unassigned) [Example 16-B], the EC50 in test [1] (setting [3]) is less than 10 nM; in test [2] (setting [4]) it was greater than 100 nM.

For the molecule `Cc1nc(-c2ncccn2)sc1C(=O)NCC(O)(c1cc(C(C)(C)N)cc(-c2ccc(F)cc2)n1)C1CC1` (single isomer, unassigned) [Example 22-B], the EC50 in test [1] (setting [5]) is less than 10 nM; in test [2] (setting [6]) it was greater than 100 nM.

As for `Cn1nc(-c2cscn2)cc1C(=O)NCC(C)(O)c1cc(C2(C)CCNC2)cc(-c2ccc(F)cc2)n1` (single isomer, unassigned) [Example 27-A], the EC50 in test [1] (setting [5]) and in test [2] (setting [4]) was greater than 100 nM in each case.

With `Cc1nc(-c2ncccn2)sc1C(=O)NCC(O)(c1cc(C(C)(C)N)cc(-c2ccc(F)cc2)n1)C1CC1` (single isomer, unassigned) [Example 22-A], the EC50 in test [1] (setting [5]) and in test [2] (setting [4]) was greater than 100 nM each time.

With `CCC(O)(CNC(=O)c1cc(-c2cscn2)nn1C)c1cc(C(C)(C)N)cc(-c2ccc(F)cc2)n1` (single isomer, unassigned) [Example 21-B], the EC50 in test [1] (setting [5]) was 10 to 100 nM; in test [2] (setting [6]), greater than 100 nM.

For the molecule `Cn1nc(-c2cscn2)cc1C(=O)NCC(C)(O)c1cc(C(C)(C)N)cc(-c2ccc(Cl)c(F)c2)n1` (single isomer, unassigned) [Example 17-B], the values for the EC50 in test [1] (setting [3]) and in test [2] (setting [4]) were less than 10 nM and greater than 100 nM, respectively.

For `Cn1nc(-c2cscn2)cc1C(=O)NCC(C)(O)c1cc(C(C)(C)O)cc(-c2ccc(F)cc2)n1` (single isomer, unassigned) [Example 32-A, N-(2-(6-(4-fluorophenyl)-4-(2-hydroxypropan-2-yl)pyridin-2-yl)-2-hydroxypropyl)-1-methyl-3-(thiazol-4-yl)-1H-pyrazole-5-carboxamide], the EC50 in test [1] (setting [5]) was greater than 100 nM.

As to `Cn1nc(-n2cccn2)cc1C(=O)NCC(O)c1cc(C(C)(C)N)cc(-c2ccc(F)cc2)n1` (single isomer, unassigned) [Example 34-A, N-(2-(4-(2-aminopropan-2-yl)-6-(4-fluorophenyl)pyridin-2-yl)-2-hydroxyethyl)-1′-methyl-1′H-[1,3′-bipyrazole]-5′-carboxamide], the EC50 in test [1] (setting [5]) is less than 10 nM.

With `Cn1nc(-c2cscn2)cc1C(=O)NCC(C)(O)c1cc(C(C)(C)C(N)=O)cc(-c2ccc(F)cc2)n1` (single isomer, unassigned) [Example 31-A, N-(2-(4-(1-amino-2-methyl-1-oxopropan-2-yl)-6-(4-fluorophenyl)pyridin-2-yl)-2-hydroxypropyl)-1-methyl-3-(thiazol-4-yl)-1H-pyrazole-5-carboxamide], the EC50 in test [1] (setting [5]) was greater than 100 nM.

Regarding `Cn1nc(-c2cscn2)cc1C(=O)NCC(C)(O)c1cc(C(C)(C)C(N)=O)cc(-c2ccc(F)cc2)n1` (single isomer, unassigned) [Example 31-B, N-(2-(4-(1-amino-2-methyl-1-oxopropan-2-yl)-6-(4-fluorophenyl)pyridin-2-yl)-2-hydroxypropyl)-1-methyl-3-(thiazol-4-yl)-1H-pyrazole-5-carboxamide], in test [1] (setting [5]), the 50% effective concentration (EC50) was less than 10 nM.

In the case of `Cn1nc(-n2cccn2)cc1C(=O)NCC(C)(O)c1cc2c(c(-c3ccc(F)cc3)n1)OCC2(C)C(N)=O` (single isomer, unassigned) [Example 29-A, 7-(4-fluorophenyl)-5-(2-hydroxy-1-(1′-methyl-1′H-[1,3′-bipyrazole]-5′-carboxamido)propan-2-yl)-3-methyl-2,3-dihydrofuro[2,3-c]pyridine-3-carboxamide], the EC50 in test [1] (setting [5]) fell in the range of 10 to 100 nM.

As to `CC(N)C(C)(C)c1cc(-c2ccc(F)cc2)nc(C(C)(O)CNC(=O)c2cc(-n3cccn3)nn2C)c1` (single isomer, unassigned) [Example 33-B, N-(2-(4-(3-amino-2-methylbutan-2-yl)-6-(4-fluorophenyl)pyridin-2-yl)-2-hydroxypropyl)-1′-methyl-1′H-[1,3′-bipyrazole]-5′-carboxamide], in test [1] (setting [5]), the EC50 was greater than 100 nM.

As to `Cn1nc(-n2cccn2)cc1C(=O)NCC(O)(c1cc(C(C)(C)N)cc(-c2ccc(F)cc2)n1)C(F)(F)F` (single isomer, unassigned) [Example 36-A, N-(2-(4-(2-aminopropan-2-yl)-6-(4-fluorophenyl)pyridin-2-yl)-3,3,3-trifluoro-2-hydroxypropyl)-1′-methyl-1′H-[1,3′-bipyrazole]-5′-carboxamide], the EC50 in test [1] (setting [3]) was less than 10 nM.

Consider `CC(N)C(C)(C)c1cc(-c2ccc(F)cc2)nc(C(C)(O)CNC(=O)c2cc(-n3cccn3)nn2C)c1` (single isomer, unassigned) [Example 33-A, N-(2-(4-(3-amino-2-methylbutan-2-yl)-6-(4-fluorophenyl)pyridin-2-yl)-2-hydroxypropyl)-1′-methyl-1′H-[1,3′-bipyrazole]-5′-carboxamide], for which the EC50 in test [1] (setting [5]) was greater than 100 nM.

Source of the values: patent US20250066323A1, “INHIBITORS OF HUMAN RESPIRATORY SYNCYTIAL VIRUS AND METAPNEUMOVIRUS” (priority 2023, published 2025).
